Experiment [1] relates to Arachidonate-Induced Bronchospasm (cyclooxygenase). The experiment is described as follows: Pulmonary Mechanics Assay: arachidonate-induced bronchospasm without indomethacin (indicative of cyclooxygenase inhibition). It counts as in vivo, male Hartley guinea pigs. Particulars: Cavia porcellus, guinea pig; for inhibition in vivo at 15 mg/kg: IV dosing, read-out: Inhibition of Arachidonate-Induced Bronchospasm (IV Dosing), % Inh. without Indomethacin; for inhibition in vivo at 50 mg/kg: ID dosing, read-out: Inhibition of Arachidonate-Induced Bronchospasm (ID Dosing), % Inh. without Indomethacin. How it is done:
(§1) The bronchodilating activity of the compounds was tested in a pulmonary mechanics assay. Basically, male Hartley guinea pigs (about 400-500 g) were anesthetized with urethane (2 g/kg, i.p.) and placed in a whole body Plethysmograph. Cannulations of a jugular vein and carotid artery were performed for compound administration and monitoring blood pressure, respectively. The trachea was cannulated for respiration at a constate volume via a miniature starling pump. A Validyne differential pressure transducer (±20 cm H2 O) sensed transpleural pressure via a 15 gauge needle inserted into the pleural cavity and a sidearm from the tracheal cannula. Tidal volume was sensed by another Validyne differential pressure transducer (±2 cm H2 O) from pressure changes inside the plethysmograph. An on-line Buxco pulmonary mechanics computer calculated air flow, dynamic lung compliance and lung resistance. The values were recorded on a print-out.
(§2) The guinea pigs were pretreated with succinyl choline (1.2 mg/kg, i.v.) to arrest spontaneous respiration. A control challenge of arachidonic acid (0.5-1.0 mg/kg, i.v.) was administered, and the animals were then dosed with the test compound by various routes. At least 10 minutes were allowed to expire between arachidonic acid challenges. A second challenge was given and compared to the control response. This comparison was indicative of cyclooxygenase inhibition. Indomethacin (10 mg/kg, i.v.) was administered immediately after the second challenge. A third challenge of a higher dose of arachidonic acid (5-10 mg/kg, i.v.) was given. This response was induced by SRS-A and compared to the responses elicited by a separate control group of animals. Activity was indicative of lipoxygenase inhibition. Propranolol (0.005 mg/kg. i.v.) may be given prior to the third challenge to enhance the response to SRS-A.
(§3) Bronchoconstriction induced by arachidonic acid with or without indomethacin was expressed as maximum percent change in dynamic lung compliance (Cdyn) and maximum percent increase in lung resistance (RL). Each guinea pig served as its own control for cyclooxygenase evaluation. The results are shown in Table I and are expressed as the percent inhibition of control.

A further experiment concerns the target T1, 5-lipoxygenase (Rattus norvegicus, UniProt P12527).
T1 construct: The cell-free homogenate was prepared by sonication of the cells followed by centrifugation at 40,000 xg; endogenous in cells; host or cells: RBL-1 (rat basophilic leukemia) cells, 40,000 xg supernatant of the sonicate
T1 sequence (P12527 1-673): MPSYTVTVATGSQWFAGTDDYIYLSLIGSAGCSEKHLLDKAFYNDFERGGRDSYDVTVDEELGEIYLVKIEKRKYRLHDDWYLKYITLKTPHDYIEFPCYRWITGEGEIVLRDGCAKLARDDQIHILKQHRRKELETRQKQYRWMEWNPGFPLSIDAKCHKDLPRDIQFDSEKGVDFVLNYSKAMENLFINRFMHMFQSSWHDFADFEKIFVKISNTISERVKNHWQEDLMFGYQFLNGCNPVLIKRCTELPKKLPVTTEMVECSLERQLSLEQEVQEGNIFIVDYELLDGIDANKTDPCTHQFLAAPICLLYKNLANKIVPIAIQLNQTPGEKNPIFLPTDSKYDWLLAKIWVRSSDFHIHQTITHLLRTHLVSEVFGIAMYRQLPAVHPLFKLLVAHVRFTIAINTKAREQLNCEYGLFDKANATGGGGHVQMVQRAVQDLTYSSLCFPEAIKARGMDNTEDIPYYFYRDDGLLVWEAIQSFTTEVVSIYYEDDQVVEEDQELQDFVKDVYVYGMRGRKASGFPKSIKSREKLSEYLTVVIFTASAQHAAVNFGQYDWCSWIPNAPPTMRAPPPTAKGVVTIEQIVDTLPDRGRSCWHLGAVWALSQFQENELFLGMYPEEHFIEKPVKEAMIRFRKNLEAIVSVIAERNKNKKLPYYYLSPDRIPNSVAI
The experiment is described as follows: Inhibition of 5-lipoxygenase in cell-free homogenate of rat basophilic leukemia (RBL-1) cells. The format is biochemical. Particulars: 3 μM; RBL-1 cell-free homogenate; read-out: Inhibition of 5-Lipoxygenase, % Inh. @ 3 μM. The procedure:
The inhibition of 5-lipoxygenase was tested in a cell-free homogenate by the procedure of B. Jakschik et al., Biochem.Biophys.Res.Comm. 95, 103 (1980). Basically, rat basophilic leukemia cells (RBL-1 cells) were maintained in culture in a suitable medium, and were collected by centrifugation prior to assay. The cell-free homogenate was prepared by sonication of the cells followed by centrifugation at 40,000 xg. The CaCl2 dependent production of lipoxygenase products from ^14 C-arachidonic acid in the 40,000 xg supernatant was monitored in the presence of buffer (or other vehicle) or drug. Products were isolated by acidification and extraction, followed by thin layer chromatography. Radioactive areas corresponding to the authentic lipoxygenase products were quantitated by liquid scintillation counting. Data was reported as the IC50, the concentration causing 50% inhibition of the generation of lipoxygenase products. The results are shown it Table I as the percent inhibition at 3 μM or the amount of compound necessary to cause 50% inhibition.

Experiment [2] concerns Arachidonate-Induced Bronchospasm (lipoxygenase). As to the kind of experiment: Pulmonary Mechanics Assay: arachidonate-induced bronchospasm with indomethacin (SRS-A response, indicative of lipoxygenase inhibition). The format is in vivo, male Hartley guinea pigs. To be noted: Cavia porcellus, guinea pig; for inhibition in vivo at 15 mg/kg: IV dosing, read-out: Inhibition of Arachidonate-Induced Bronchospasm (IV Dosing), % Inh. with Indomethacin; for inhibition in vivo at 50 mg/kg: ID dosing, read-out: Inhibition of Arachidonate-Induced Bronchospasm (ID Dosing), % Inh. with Indomethacin. The procedure: as §1, §2, §3

For orientation: inhibition means the change of the read-out against control, counted positive when it falls. On to `COc1cc2c(cc1OC)CC(NC(=O)N(C)O)CC2` (centres unmarked) [Example 61, N-(6,7-Dimethoxy-1,2,3,4-tetrahydro-2-naphthyl)-N'-hydroxy-N'-methylurea], for which the inhibition in vivo at 15 mg/kg in experiment [1] and in experiment [2] was below 20% throughout. Also, the inhibition at 3 µM on 5-lipoxygenase stood at 73%.

For `CN(O)C(=O)NCCCCCOc1ccc(-c2ccccc2)cc1` [Example 36, N-[5-([l,l'Biphenyl]-4-yloxy)pentyl]N'-hydroxy-N'-methylurea], the results for the inhibition in vivo at 50 mg/kg in experiment [1] and in experiment [2] were below 20% and 31%, respectively. The inhibition at 3 µM at 5-lipoxygenase was determined as 67%.

As to `COc1ccc(CCCNC(=O)N(C)O)cc1OC` [Example 65, N-[3-(3,4-Dimethoxyphenyl)propyl]-N'-hydroxy-N'-methylurea], in experiment [1], the inhibition in vivo at 50 mg/kg was found to be 52% and the inhibition in vivo at 15 mg/kg was 86%. Moreover, the inhibition at 3 µM on 5-lipoxygenase was determined as 19%. In addition, in experiment [2], the inhibition in vivo at 50 mg/kg was determined as 59% and the inhibition in vivo at 15 mg/kg is 89%.

Take `COc1cccc(CCNC(=O)N(C)O)c1OC` [Example 44, N-[2-(2,3-Dimethoxyphenyl)ethyl]-N'-hydroxy-N'-methylurea]: the figures for the inhibition in vivo at 50 mg/kg in experiment [1] and in experiment [2] were below 20% and 58%, respectively. Also, the inhibition at 3 µM at 5-lipoxygenase came out at 33%.

With `COc1cc2c(cc1OC)C(CNC(=O)N(C)O)CC2` (centres unmarked) [Example 60, N-[(5,6-Dimethoxyindan-1-yl)methyl]-N'-hydroxy-N'-methylurea], the values for the inhibition in vivo at 15 mg/kg in experiment [1] and in experiment [2] were 48% and 67%, respectively. In addition, the inhibition at 3 µM on 5-lipoxygenase is 51%.

For the molecule `CN(O)C(=O)NCCCc1ccc(-c2ccccc2)cc1` [Example 32, N-[3-([1,1'-Biphenyl]-4-yl)propyl]-N'-hydroxy-N'-methylurea], the inhibition in vivo at 50 mg/kg in experiment [1] and in experiment [2] was below 20% each time. The inhibition at 3 µM at 5-lipoxygenase came out at 71%.

Regarding `C=CCOc1ccc(CCNC(=O)N(C)O)cc1OC` [Example 55], in experiment [1], the inhibition in vivo at 50 mg/kg was -68% and the inhibition in vivo at 15 mg/kg was determined as 56%. On 5-lipoxygenase, the inhibition at 3 µM came out at 42%. In experiment [2], the inhibition in vivo at 50 mg/kg turned out to be 56% and the inhibition in vivo at 15 mg/kg was found to be 83%.

`CN(O)C(=O)NCCc1ccc(Cl)c(Cl)c1` [Example 50, N-[2-(3,4-Dichlorophenyl)ethyl]-N'-hydroxy-N'-methylurea]: the inhibition in vivo at 50 mg/kg in experiment [1] and in experiment [2] was below 20% in each case. Also, at 5-lipoxygenase, the inhibition at 3 µM came to 59%.

As to `COc1ccc(C2C3C=CC(C3)C2NC(=O)N(C)O)cc1OC` (stereo not drawn) [Example 58, N-[trans-3-(3,4-Dimethoxyphenyl)bicyclo[2.2.1]-5-hepten-2-yl]-N'-hydroxy-N'-methylurea], the inhibition in vivo at 50 mg/kg in experiment [1] turned out to be 35%; in experiment [2] it was 68%. Besides, the inhibition at 3 µM at 5-lipoxygenase was determined as 37%.

With `COc1ccc(CCNC(=O)N(O)C(C)C)cc1OC` [Example 41, N-[2-(3,4-Dimethoxyphenyl)ethyl]-N'-hydroxy-N'-(1-methylethyl)urea], in experiment [1], the inhibition in vivo at 50 mg/kg is below 20% and the inhibition in vivo at 15 mg/kg amounted to 42%. Moreover, the inhibition at 3 µM at 5-lipoxygenase worked out at 95%. In experiment [2], the inhibition in vivo at 50 mg/kg worked out at 30% and the inhibition in vivo at 15 mg/kg turned out to be 70%.

As for `COc1cc(CCNC(=O)N(C)O)ccc1O` [Example 70, N-[2-(4-Hydroxy-3-methoxyphenyl)ethyl]-N'-hydroxy-N'-methylurea], the inhibition in vivo at 50 mg/kg in experiment [1] and in experiment [2] was below 20% each time. The inhibition at 3 µM at 5-lipoxygenase was found to be 39%.

`COc1cc(CCNC(=O)N(C)O)ccc1OCc1ccccc1` [Example 68, N-[2-(4-Benzyloxy-3-methoxyphenyl)ethyl]-N'-hydroxy-N'-methylurea]: the inhibition in vivo at 50 mg/kg in experiment [1] was below 20%; in experiment [2], 28%. For the same molecule, the inhibition at 3 µM at 5-lipoxygenase was determined as 69%.

Regarding `COc1ccc(CCNC(=O)N(C)O)c(OC)c1` [Example 49, N-[2-(2,4-Dimethoxyphenyl)ethyl]-N'-hydroxy-N'-methylurea], the inhibition in vivo at 15 mg/kg worked out at 39% in experiment [1] and 67% in experiment [2]. For the same molecule, the inhibition at 3 µM on 5-lipoxygenase amounted to 99%.

Turning to `CN(O)C(=O)NCc1ccc(-c2ccccc2)cc1` [Example 30, N-([1,1'-Biphenyl]-4-ylmethyl)N'hydroxy-N'methylurea], the inhibition in vivo at 50 mg/kg in experiment [1] and in experiment [2] was below 20% each time. In addition, on 5-lipoxygenase, the inhibition at 3 µM is 74%.

Take `CN(O)C(=O)NCCCCCCCOc1ccc(-c2ccccc2)cc1` [Example 38]: the inhibition in vivo at 50 mg/kg in experiment [1] is -9%; in experiment [2], below 20%. For the same molecule, the inhibition at 3 µM on 5-lipoxygenase was found to be 56%.

For the molecule `COc1ccc(CCCN(CCCc2ccc(OC)c(OC)c2)C(=O)N(C)O)cc1OC` [Example 63, N,N-Bis-[3-(3,4-dimethoxyphenyl)propyl]-N'-hydroxy-N'-methylurea], the inhibition in vivo at 50 mg/kg in experiment [1] was below 20%; in experiment [2], 21%. Further, the inhibition at 3 µM at 5-lipoxygenase worked out at 76%.

For `CN(O)C(=O)NCCCCCCOc1ccc(-c2ccccc2)cc1` [Example 37, N-[6-([1,1'-Biphenyl]-4-yloxy)hexyl]N'hydroxy-N'-methylurea], the inhibition in vivo at 50 mg/kg in experiment [1] is -33%; in experiment [2], -11%. Besides, on 5-lipoxygenase, the inhibition at 3 µM is 65%.

As for `COc1ccc([C@@H]2C[C@H]2NC(=O)N(C)O)cc1OC` (relative stereo) [Example 66, N-[Trans-2-(3,4-dimethoxyphenyl)cyclopropyl]-N'-hydroxy-N'-methylurea], in experiment [1], the inhibition in vivo at 50 mg/kg was found to be 43% and the inhibition in vivo at 15 mg/kg worked out at 61%. Besides, the inhibition at 3 µM at 5-lipoxygenase amounted to 28%. Besides, in experiment [2], the inhibition in vivo at 50 mg/kg was found to be 45% and the inhibition in vivo at 15 mg/kg was 90%.

The values above are taken from patent US5066658A, “Substituted hydroxyureas” (Ortho Pharmaceutical Corporation, priority 1990, dated 1991).
